Measured values from PubChem BioAssay AID1963863 (Molecular Pharmacology Branch, DTP, NCI, 2024).

System: 931267-113-T-J1-PDC KRAS spheroid with HUVEC/MSC, viability
Test: Anticancer human tumor 931267-113-T-J1-PDC patient-derived colon adenocarcinoma cell line growth inhibition [KRAS2]
Settings: for IC50: curve of first compound; for viability, T/C: stronger effect = lower value
Outline: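 Combination screen of spheroid viability in tumor-cell co-cultures with endothelial (HUVEC) and mesenchymal stem cell stroma. Each agent was tested in half-log dilutions, topping at clinical Cmax or at 10 microM without a known Cmax.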

[1] = second compound 0.1 µM, first compound 0.01 µM
[2] = second compound 0.1 µM, first compound 0.0316 µM
[3] = second compound 0.1 µM, first compound 0.1 µM
[4] = second compound 0.1 µM, first compound 0.316 µM
[5] = second compound 0.1 µM, first compound 1 µM
[6] = second compound 0.1 µM, first compound 3.16 µM
[7] = second compound 0.316 µM, first compound 0.01 µM
[8] = second compound 0.316 µM, first compound 0.0316 µM
[9] = second compound 0.316 µM, first compound 0.1 µM
[10] = second compound 0.316 µM, first compound 0.316 µM
[11] = second compound 0.316 µM, first compound 1 µM
[12] = second compound 0.316 µM, first compound 3.16 µM
[13] = second compound 1 µM, first compound 0.01 µM
[14] = second compound 1 µM, first compound 0.0316 µM
[15] = second compound 1 µM, first compound 0.1 µM
[16] = second compound 1 µM, first compound 0.316 µM
[17] = second compound 1 µM, first compound 1 µM
[18] = second compound 1 µM, first compound 3.16 µM
[19] = second compound 3.16 µM, first compound 0.01 µM
[20] = second compound 3.16 µM, first compound 0.0316 µM
[21] = second compound 3.16 µM, first compound 0.1 µM
[22] = second compound 3.16 µM, first compound 0.316 µM
[23] = second compound 3.16 µM, first compound 1 µM
[24] = second compound 3.16 µM, first compound 3.16 µM
[25] = second compound 10 µM, first compound 0.01 µM
[26] = second compound 10 µM, first compound 0.0316 µM
[27] = second compound 10 µM, first compound 0.1 µM
[28] = second compound 10 µM, first compound 0.316 µM
[29] = second compound 10 µM, first compound 1 µM
[30] = second compound 10 µM, first compound 3.16 µM
[31] = second compound 0.1 µM, first compound 10 µM
[32] = second compound 0.316 µM, first compound 10 µM
[33] = second compound 1 µM, first compound 10 µM
[34] = second compound 3.16 µM, first compound 10 µM
[35] = second compound 10 µM, first compound 10 µM
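Note: compound exposure lasted 7 days before the readout.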
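Throughout, for viability, T/C: 100% = DMSO vehicle control viability.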

| SMILES | IC50 (second compound 0.1 µM) | IC50 (second compound 0.316 µM) | IC50 (second compound 1 µM) | IC50 (second compound 3.16 µM) | IC50 (second compound 10 µM) | viability, T/C [2] | viability, T/C [3] | viability, T/C [4] | viability, T/C [5] | viability, T/C [8] | viability, T/C [9] | viability, T/C [10] | viability, T/C [11] | viability, T/C [14] | viability, T/C [15] | viability, T/C [16] | viability, T/C [17] | viability, T/C [20] | viability, T/C [21] | viability, T/C [22] | also measured |
| --- | --- | --- | --- | --- | --- | --- | --- | --- | --- | --- | --- | --- | --- | --- | --- | --- | --- | --- | --- | --- | --- |
| CC1COCCN1c1cc(-c2ccnn2C)c2ccnc(-c3ccn[nH]3)c2n1 (stereo not given) + CC1OCC2(CCN(c3cnc(Sc4ccnc(N)c4Cl)c(N)n3)CC2)C1N | 42.4 nM | 45.3 nM | 44.3 nM | 33.2 nM | 59.9 nM | 57.3% | 28.9% | 16.6% | 16.9% | 63.4% | 20.6% | 15.6% | 19% | 58.5% | 29.6% | 18.1% | 18.5% | 50.4% | 29.3% | 16.1% | viability, T/C [1]: 92.3%; viability, T/C [6]: 19.5%; viability, T/C [7]: 81.2%; viability, T/C [12]: 18.6%; viability, T/C [13]: 91.1%; viability, T/C [18]: 13.6%; viability, T/C [19]: 80.6%; viability, T/C [23]: 15.4%; viability, T/C [24]: 18.4%; viability, T/C [25]: 86.9%; viability, T/C [26]: 80.5%; viability, T/C [27]: 25.6%; viability, T/C [28]: 14.4%; viability, T/C [29]: 13.9%; viability, T/C [30]: 15.6% |
| CCN1CCN(Cc2ccc(Nc3ncc(F)c(-c4cc(F)c5nc(C)n(C(C)C)c5c4)n3)nc2)CC1 + CC1OCC2(CCN(c3cnc(Sc4ccnc(N)c4Cl)c(N)n3)CC2)C1N | 27.3 nM | 32.8 nM | 41.2 nM | 68.8 nM | 201 nM | 43.5% | 51.4% | 53.7% | 36.9% | 50.3% | 43.3% | 45.1% | 37.5% | 53.1% | 41.4% | 42% | 35.3% | 54.4% | 43.6% | 40.8% | viability, T/C (second compound 0.1 µM, first compound 0.00316 µM): 75.4%; viability, T/C [1]: 58.2%; viability, T/C (second compound 0.316 µM, first compound 0.00316 µM): 63%; viability, T/C [7]: 91.7%; viability, T/C (second compound 1 µM, first compound 0.00316 µM): 69.5%; viability, T/C [13]: 82%; viability, T/C (second compound 3.16 µM, first compound 0.00316 µM): 71.5%; viability, T/C [19]: 70.2%; viability, T/C [23]: 23.8%; viability, T/C (second compound 10 µM, first compound 0.00316 µM): 70.6%; viability, T/C [25]: 79.1%; viability, T/C [26]: 52.9%; viability, T/C [27]: 58.7%; viability, T/C [28]: 49%; viability, T/C [29]: 9.83% |
| CCNC(=O)CC1N=C(c2ccc(Cl)cc2)c2cc(OC)ccc2-n2c(C)nnc21 (stereo not given) + CC1OCC2(CCN(c3cnc(Sc4ccnc(N)c4Cl)c(N)n3)CC2)C1N | 536 nM | 316 nM | 468 nM | 586 nM | 563 nM | 80.7% | 90.4% | 51.9% | 46.6% | 80.4% | 60.5% | 58.7% | 27.4% | 69.7% | 68.5% | 51.5% | 40.7% | 78.1% | 59.7% | 70.8% | viability, T/C [6]: 30.4%; viability, T/C [31]: 27.6%; viability, T/C [12]: 34.6%; viability, T/C [32]: 21.6%; viability, T/C [18]: 31%; viability, T/C [33]: 15.8%; viability, T/C [23]: 33%; viability, T/C [24]: 22.1%; viability, T/C [34]: 13.4%; viability, T/C [26]: 87.2%; viability, T/C [27]: 73.4%; viability, T/C [28]: 60.3%; viability, T/C [29]: 40.5%; viability, T/C [30]: 25.8%; viability, T/C [35]: 14.2% |
| Cn1nccc1Nc1nccc(-c2cc3c(s2)C(C)(C)N(CCN2CCOCC2)C3=O)n1 + CC1OCC2(CCN(c3cnc(Sc4ccnc(N)c4Cl)c(N)n3)CC2)C1N | 362 nM | 317 nM | 203 nM | 218 nM | 275 nM | 79.4% | 86.3% | 48.3% | 25.2% | 70.6% | 76.3% | 46% | 22.8% | 72.8% | 55.5% | 47.5% | 18.1% | 76.4% | 60.6% | 45.8% | viability, T/C [6]: 7.4%; viability, T/C [31]: 2.95%; viability, T/C [12]: 4.01%; viability, T/C [32]: 2.65%; viability, T/C [18]: 4.05%; viability, T/C [33]: 2.39%; viability, T/C [23]: 8.81%; viability, T/C [24]: 4.98%; viability, T/C [34]: 2.71%; viability, T/C [26]: 72.4%; viability, T/C [27]: 71.6%; viability, T/C [28]: 47%; viability, T/C [29]: 3.56%; viability, T/C [30]: 2.05%; viability, T/C [35]: 2.15% |
| CC(=O)OC12COC1CC(O)C1(C)C(=O)C(O)C3=C(C)C(OC(=O)C(O)C(NC(=O)OC(C)(C)C)c4ccccc4)CC(O)(C(OC(=O)c4ccccc4)C21)C3(C)C (stereo not given) + CNCc1ccccc1-c1csc(C(C)Nc2nc(C)nc3cc(OC)c(OC)cc23)c1 | > 3160 nM | > 3160 nM | > 3160 nM | < 10 nM | < 10 nM | 99.3% | 109% | 98.9% | 82% | 110% | 89.7% | 96.4% | 101% | 105% | 91.3% | 111% | 89.7% | 102% | 0.55% | 0.5% | viability, T/C [1]: 88.2%; viability, T/C [6]: 87.8%; viability, T/C [7]: 109%; viability, T/C [12]: 113%; viability, T/C [13]: 106%; viability, T/C [18]: 77.4%; viability, T/C [19]: 0.73%; viability, T/C [23]: 0.41%; viability, T/C [24]: 105%; viability, T/C [25]: 0.33%; viability, T/C [26]: 0.34%; viability, T/C [27]: 0.31%; viability, T/C [28]: 0.36%; viability, T/C [29]: 0.18%; viability, T/C [30]: 0.93% |
